Results reported in patent publication US8952024B2, “Herbicidal pyrimidone derivatives” (E I du Pont de Nemours and Company, priority 2009, dated 2015).

Experiments:
Experiment in all cases: Test B pre-/postemergence plant response
Assay type in all cases: in vivo
[1] = test system: Italian ryegrass (Lolium multiflorum); conditions: for Ryegrass, Italian plant response rating (0 to 100 scale): 62 g ai/ha, postemergence, 0 is no effect, 100 is complete control, 13 to 15 days; for Plant response rating, Ryegrass, Italian: Postemergence, scale 0 to 100 (0 no effect, 100 complete control)
Method in brief: (§1)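 Ratings reflect visual comparison with untreated controls 13 to 15 days after application, from 0 (no effect) to 100 (complete control). Application was preemergence to seeded loam/sand soil or postemergence to 1- to 4-leaf plants, with compound in a non-phytotoxic, surfactant-containing solvent.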

[2] = test system: Surinam grass (Brachiaria decumbens); conditions: for Surinam Grass plant response rating (0 to 100 scale): 62 g ai/ha, postemergence, 0 is no effect, 100 is complete control, 13 to 15 days; for Plant response rating, Surinam Grass: Postemergence, scale 0 to 100 (0 no effect, 100 complete control)
Method in brief: as §1

[3] = test system: bermudagrass (Cynodon dactylon); conditions: for Bermudagrass plant response rating (0 to 100 scale): 62 g ai/ha, 0 is no effect, 13 to 15 days
Method in brief: as §1

[4] = test system: blackgrass (Alopecurus myosuroides); conditions: for Blackgrass plant response rating (0 to 100 scale): 62 g ai/ha, 0 is no effect, 13 to 15 days
Method in brief: as §1

[5] = test system: corn (Zea mays); conditions: for Corn plant response rating (0 to 100 scale): 62 g ai/ha, 0 is no effect, 13 to 15 days
Method in brief: as §1

[6] = test system: downy bromegrass (Bromus tectorum); conditions: for Bromegrass, Downy plant response rating (0 to 100 scale): 62 g ai/ha, 0 is no effect, 13 to 15 days
Method in brief: as §1

[7] = test system: giant foxtail (Setaria faberii); conditions: for Foxtail, Giant plant response rating (0 to 100 scale): 62 g ai/ha, 0 is no effect, 13 to 15 days
Method in brief: as §1

[8] = test system: green foxtail (Setaria viridis); conditions: for Foxtail, Green plant response rating (0 to 100 scale): 62 g ai/ha, 0 is no effect, 13 to 15 days
Method in brief: as §1

[9] = test system: lambsquarters (Chenopodium album); conditions: for Lambsquarters plant response rating (0 to 100 scale): 62 g ai/ha, 0 is no effect, 13 to 15 days
Method in brief: as §1

[10] = test system: large crabgrass (Digitaria sanguinalis); conditions: for Crabgrass, Large plant response rating (0 to 100 scale): 62 g ai/ha, 0 is no effect, 13 to 15 days
Method in brief: as §1

[11] = test system: morningglory (Ipomoea coccinea); conditions: for Morningglory plant response rating (0 to 100 scale): 62 g ai/ha, 0 is no effect, 13 to 15 days
Method in brief: as §1

[12] = test system: woolly cupgrass (Eriochloa villosa); conditions: for Cupgrass, Woolly plant response rating (0 to 100 scale): 62 g ai/ha, 0 is no effect, 13 to 15 days
Method in brief: as §1

[13] = test system: yellow nutsedge (Cyperus esculentus); conditions: for Nutsedge, Yellow plant response rating (0 to 100 scale): 62 g ai/ha, 0 is no effect, 13 to 15 days
Method in brief: as §1

[14] = 31 g ai/ha, postemergence, scale 0 to 100, 0 is no effect, 100 is complete control
[15] = postemergence, 100 is complete control
[16] = Postemergence, 125 g ai/ha, scale 0 to 100 (0 no effect, 100 complete control)
[17] = Postemergence, 250 g ai/ha, scale 0 to 100 (0 no effect, 100 complete control)

CCCn1c(-c2ccc(F)cc2)ncc(C(=O)C2=C(O)CCCC2=O)c1=O [Compound 102]
Ryegrass, Italian plant response rating (0 to 100 scale) [1]: 0
Plant response rating, Ryegrass, Italian ([1]; 125 g ai/ha): 5
Plant response rating, Ryegrass, Italian ([1]; 250 g ai/ha): 10
Surinam Grass plant response rating (0 to 100 scale) [2]: 75
Plant response rating, Surinam Grass ([2]; 125 g ai/ha): 75
Plant response rating, Surinam Grass ([2]; 250 g ai/ha): 85
Plant response rating, Bermudagrass [3, 14]: 80
Bermudagrass plant response rating (0 to 100 scale) [3, 15]: 85
Plant response rating, Bermudagrass [3, 16]: 85
Plant response rating, Bermudagrass [3, 17]: 100
Plant response rating, Blackgrass [4, 14]: 0
Blackgrass plant response rating (0 to 100 scale) [4, 15]: 5
Plant response rating, Blackgrass [4, 16]: 30
Plant response rating, Blackgrass [4, 17]: 45
Corn plant response rating (0 to 100 scale) [5, 15]: 15
Plant response rating, Corn [5, 16]: 65
Plant response rating, Corn [5, 17]: 70
Plant response rating, Bromegrass, Downy [6, 14]: 0
Bromegrass, Downy plant response rating (0 to 100 scale) [6, 15]: 10
Plant response rating, Bromegrass, Downy [6, 16]: 10
Plant response rating, Bromegrass, Downy [6, 17]: 30
Plant response rating, Foxtail, Giant [7, 14]: 70
Foxtail, Giant plant response rating (0 to 100 scale) [7, 15]: 75
Plant response rating, Foxtail, Giant [7, 16]: 80
Plant response rating, Foxtail, Giant [7, 17]: 95
Plant response rating, Foxtail, Green [8, 14]: 80
Foxtail, Green plant response rating (0 to 100 scale) [8, 15]: 90
Plant response rating, Foxtail, Green [8, 16]: 90
Plant response rating, Foxtail, Green [8, 17]: 95
Plant response rating, Lambsquarters [9, 14]: 95
Lambsquarters plant response rating (0 to 100 scale) [9, 15]: 98
Plant response rating, Lambsquarters [9, 16]: 100
Plant response rating, Lambsquarters [9, 17]: 100
Plant response rating, Crabgrass, Large [10, 14]: 70
Crabgrass, Large plant response rating (0 to 100 scale) [10, 15]: 80
Plant response rating, Crabgrass, Large [10, 16]: 85
Plant response rating, Crabgrass, Large [10, 17]: 90
Plant response rating, Morningglory [11, 14]: 65
Morningglory plant response rating (0 to 100 scale) [11, 15]: 100
Plant response rating, Morningglory [11, 16]: 100
Plant response rating, Morningglory [11, 17]: 100
Plant response rating, Cupgrass, Woolly [12, 14]: 70
Cupgrass, Woolly plant response rating (0 to 100 scale) [12, 15]: 75
Plant response rating, Cupgrass, Woolly [12, 16]: 75
Plant response rating, Cupgrass, Woolly [12, 17]: 85
Plant response rating, Nutsedge, Yellow [13, 14]: 45
Nutsedge, Yellow plant response rating (0 to 100 scale) [13, 15]: 65
Plant response rating, Nutsedge, Yellow [13, 16]: 75
Plant response rating, Nutsedge, Yellow [13, 17]: 80

COCC(C)n1c(-c2ccccc2)ncc(C(=O)C2=C(O)CCCC2=O)c1=O (stereo not shown) [Compound 107]
Ryegrass, Italian plant response rating (0 to 100 scale) [1]: 0
Plant response rating, Ryegrass, Italian ([1]; 125 g ai/ha): 5
Plant response rating, Ryegrass, Italian ([1]; 250 g ai/ha): 5
Surinam Grass plant response rating (0 to 100 scale) [2]: 75
Plant response rating, Surinam Grass ([2]; 125 g ai/ha): 80
Plant response rating, Surinam Grass ([2]; 250 g ai/ha): 85
Plant response rating, Bermudagrass [3, 14]: 75
Bermudagrass plant response rating (0 to 100 scale) [3, 15]: 80
Plant response rating, Bermudagrass [3, 16]: 95
Plant response rating, Bermudagrass [3, 17]: 98
Plant response rating, Blackgrass [4, 14]: 0
Blackgrass plant response rating (0 to 100 scale) [4, 15]: 5
Plant response rating, Blackgrass [4, 16]: 15
Plant response rating, Blackgrass [4, 17]: 20
Plant response rating, Corn [5, 14]: 65
Corn plant response rating (0 to 100 scale) [5, 15]: 65
Plant response rating, Corn [5, 16]: 75
Plant response rating, Corn [5, 17]: 85
Plant response rating, Bromegrass, Downy [6, 14]: 0
Bromegrass, Downy plant response rating (0 to 100 scale) [6, 15]: 5
Plant response rating, Bromegrass, Downy [6, 16]: 10
Plant response rating, Bromegrass, Downy [6, 17]: 30
Plant response rating, Foxtail, Giant [7, 14]: 75
Foxtail, Giant plant response rating (0 to 100 scale) [7, 15]: 80
Plant response rating, Foxtail, Giant [7, 16]: 85
Plant response rating, Foxtail, Giant [7, 17]: 95
Plant response rating, Foxtail, Green [8, 14]: 70
Foxtail, Green plant response rating (0 to 100 scale) [8, 15]: 75
Plant response rating, Foxtail, Green [8, 16]: 90
Plant response rating, Foxtail, Green [8, 17]: 98
Plant response rating, Lambsquarters [9, 14]: 90
Lambsquarters plant response rating (0 to 100 scale) [9, 15]: 100
Plant response rating, Lambsquarters [9, 16]: 100
Plant response rating, Lambsquarters [9, 17]: 100
Plant response rating, Crabgrass, Large [10, 14]: 75
Crabgrass, Large plant response rating (0 to 100 scale) [10, 15]: 85
Plant response rating, Crabgrass, Large [10, 16]: 90
Plant response rating, Crabgrass, Large [10, 17]: 95
Plant response rating, Morningglory [11, 14]: 100
Morningglory plant response rating (0 to 100 scale) [11, 15]: 100
Plant response rating, Morningglory [11, 16]: 100
Plant response rating, Morningglory [11, 17]: 100
Plant response rating, Cupgrass, Woolly [12, 14]: 65
Cupgrass, Woolly plant response rating (0 to 100 scale) [12, 15]: 65
Plant response rating, Cupgrass, Woolly [12, 16]: 75
Plant response rating, Cupgrass, Woolly [12, 17]: 80
Plant response rating, Nutsedge, Yellow [13, 14]: 75
Nutsedge, Yellow plant response rating (0 to 100 scale) [13, 15]: 75
Plant response rating, Nutsedge, Yellow [13, 16]: 75
Plant response rating, Nutsedge, Yellow [13, 17]: 85

COCCn1c(-c2cccc(C)c2)ncc(C(=O)C2=C(O)CCCC2=O)c1=O [Compound 117]
Ryegrass, Italian plant response rating (0 to 100 scale) [1]: 10
Plant response rating, Ryegrass, Italian ([1]; 125 g ai/ha): 15
Plant response rating, Ryegrass, Italian ([1]; 250 g ai/ha): 50
Surinam Grass plant response rating (0 to 100 scale) [2]: 75
Plant response rating, Surinam Grass ([2]; 250 g ai/ha): 85
Plant response rating, Bermudagrass [3, 14]: 75
Bermudagrass plant response rating (0 to 100 scale) [3, 15]: 90
Plant response rating, Bermudagrass [3, 16]: 95
Plant response rating, Bermudagrass [3, 17]: 100
Plant response rating, Blackgrass [4, 14]: 0
Blackgrass plant response rating (0 to 100 scale) [4, 15]: 10
Plant response rating, Blackgrass [4, 16]: 40
Plant response rating, Blackgrass [4, 17]: 40
Plant response rating, Corn [5, 14]: 10
Corn plant response rating (0 to 100 scale) [5, 15]: 15
Plant response rating, Corn [5, 16]: 25
Plant response rating, Corn [5, 17]: 25
Plant response rating, Bromegrass, Downy [6, 14]: 5
Bromegrass, Downy plant response rating (0 to 100 scale) [6, 15]: 10
Plant response rating, Bromegrass, Downy [6, 16]: 15
Plant response rating, Bromegrass, Downy [6, 17]: 45
Plant response rating, Foxtail, Giant [7, 14]: 65
Foxtail, Giant plant response rating (0 to 100 scale) [7, 15]: 75
Plant response rating, Foxtail, Giant [7, 16]: 80
Plant response rating, Foxtail, Giant [7, 17]: 95
Plant response rating, Foxtail, Green [8, 14]: 50
Foxtail, Green plant response rating (0 to 100 scale) [8, 15]: 70
Plant response rating, Foxtail, Green [8, 16]: 80
Plant response rating, Foxtail, Green [8, 17]: 95
Plant response rating, Lambsquarters [9, 14]: 95
Lambsquarters plant response rating (0 to 100 scale) [9, 15]: 98
Plant response rating, Lambsquarters [9, 16]: 100
Plant response rating, Lambsquarters [9, 17]: 100
Plant response rating, Crabgrass, Large [10, 14]: 75
Crabgrass, Large plant response rating (0 to 100 scale) [10, 15]: 80
Plant response rating, Crabgrass, Large [10, 16]: 95
Plant response rating, Crabgrass, Large [10, 17]: 95
Plant response rating, Morningglory [11, 14]: 10
Morningglory plant response rating (0 to 100 scale) [11, 15]: 75
Plant response rating, Morningglory [11, 16]: 80
Plant response rating, Morningglory [11, 17]: 100
Plant response rating, Cupgrass, Woolly [12, 14]: 65
Cupgrass, Woolly plant response rating (0 to 100 scale) [12, 15]: 85
Plant response rating, Cupgrass, Woolly [12, 16]: 95
Plant response rating, Cupgrass, Woolly [12, 17]: 98
Plant response rating, Nutsedge, Yellow [13, 14]: 0
Nutsedge, Yellow plant response rating (0 to 100 scale) [13, 15]: 0
Plant response rating, Nutsedge, Yellow [13, 16]: 25
Plant response rating, Nutsedge, Yellow [13, 17]: 35
